The subject of one experiment is middle meningeal artery. Particulars: rats, electrical stimulation of the dura mater, prior administration; cited from earlier work.
Experiment [1] concerns facial blood flow. Particulars: rat, trigeminal ganglion stimulation; cited from earlier work.
The next experiment has as its target endogenous CGRP receptor (Homo sapiens, UniProt O60894+Q16602). The experiment in a line: CGRP functional antagonism using SK-N-MC-BLA (4C10), β-lactamase transcriptional reporter assay. In kind it is cell-based. As to conditions: SK-N-MC (4C10) cells, inhibition of β-lactamase expression in the presence of 200 pM CGRP. In general terms: In a reporter assay the amount or activity of a reporter protein is the signal.

For experiment [2], the target named is T1, CGRP receptor (SK-N-MC membrane) (Homo sapiens, UniProt O60894+Q16602).
T1 construct: Purified SK-N-MC membrane was purchased from Perkin Elmer; purchased Perkin Elmer; host or cells: SK-N-MC membrane
T1 sequence (Q16602 23-461): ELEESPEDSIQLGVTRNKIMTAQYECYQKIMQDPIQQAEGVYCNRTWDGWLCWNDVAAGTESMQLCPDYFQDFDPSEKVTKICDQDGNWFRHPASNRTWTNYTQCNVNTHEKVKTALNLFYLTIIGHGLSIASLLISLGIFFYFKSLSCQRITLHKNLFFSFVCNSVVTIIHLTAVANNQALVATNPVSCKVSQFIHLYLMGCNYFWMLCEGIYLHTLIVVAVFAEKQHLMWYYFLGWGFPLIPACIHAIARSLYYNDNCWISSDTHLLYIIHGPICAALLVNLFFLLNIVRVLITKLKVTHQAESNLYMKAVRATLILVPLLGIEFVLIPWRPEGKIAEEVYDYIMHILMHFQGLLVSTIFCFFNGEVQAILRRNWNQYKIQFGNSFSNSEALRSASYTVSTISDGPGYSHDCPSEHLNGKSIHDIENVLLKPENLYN
T1 sequence (O60894 27-148): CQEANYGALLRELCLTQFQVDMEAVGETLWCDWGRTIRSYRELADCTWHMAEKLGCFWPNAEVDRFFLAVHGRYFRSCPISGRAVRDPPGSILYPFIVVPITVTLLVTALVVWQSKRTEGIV
The experiment in a line: I125-CGRP binding displacement assay on purified SK-N-MC membrane. A digest of the protocol:
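Displacement of I125-CGRP binding was measured by filtration and scintillation counting after 2 h room-temperature incubation with compound and SK-N-MC membranes (buffer pH 7.4, MgCl2, BSA, Tween). Percent displacement calculated against total binding and 1 uM cold CGRP nonspecific controls, then curve-fitted.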

For experiment [3], the system named is facial blood flow. As to conditions: marmoset, electrical stimulation of the trigeminal ganglion; cited from earlier work.
Experiment [4] relates to acute attacks of migraine. Particulars: clinical trials; cited from earlier work.

Ends that are not written are not given here.

Sequence of endogenous CGRP receptor (Q16602 23-461): as the sequence (Q16602 23-461) above
Sequence of endogenous CGRP receptor (O60894 27-148): as the sequence (O60894 27-148) above

As to “CGRP (8-37): a peptide CGRP antagonist (VTHRLAGLLSRSGGVVKNNFVPTNVGSKAF; ends and bridges not checked; UniProt P06881 90-119, looked up, fragment)”, in the experiment on middle meningeal artery, the “effect on increase of middle meningeal artery diameter” value was “blocked”. The “effect on increased facial blood flow” value with facial blood flow [1] is reported as “inhibited”.

A word on the IC50: it is the concentration at which inhibition is half-maximal. The term Ki denotes the dissociation constant of the complex between target and ligand, obtained from inhibition or displacement. A high value points to weaker binding. For the compound `CN1CCN(c2ccccc2[C@@H]2SC(CC(=O)N3CCCCC3)C(=O)N2CCC(C)(C)C)CC1` (stereo partly shown) [Compound 105], the IC50 on endogenous CGRP receptor was > 5 µM. In addition, the Ki in experiment [2] is > 5 µM.

Take `CC(C)CCN1C(=O)C(CC(=O)N2CCC(n3cc4ccccc4nc3=O)CC2)SC1c1ccccc1` (stereo not shown) [Compound 259]: the IC50 on endogenous CGRP receptor is < 1 µM. In experiment [2], the Ki is < 1 µM.

Take `CC(C)CCN1C(=O)C(CC(=O)N2CCC(N3Cc4ccccc4NC3=O)CC2)SC1c1cccc(OC(F)(F)C(F)F)c1` (stereo not shown) [Compound 240]: on endogenous CGRP receptor, the IC50 is 1 to 5 µM. For the same compound, the Ki in experiment [2] is < 1 µM.

On to `CN(c1ccccc1C1SC(CC(=O)N2CCC(n3c(=O)[nH]c4ncccc43)CC2)C(=O)N1CCC(C)(C)C)[C@@H]1CCN(Cc2ccccc2)C1` (stereo partly shown) [Compound 402], for which, at endogenous CGRP receptor, the IC50 is < 1 µM. The Ki in experiment [2] was < 1 µM.

For the compound `O=C(CC1SC(c2ccccc2)N(Cc2cccnc2)C1=O)N1CCC(N2Cc3ccccc3NC2=O)CC1` (stereo not shown) [Compound 278], the IC50 at endogenous CGRP receptor is < 1 µM. The Ki in experiment [2] is < 1 µM.

Turning to `Cc1ccc(C2SC(CC(=O)N3CCC(N4Cc5ccccc5NC4=O)CC3)C(=O)N2CCC(C)C)cc1C` (stereo not shown) [Compound 204], at endogenous CGRP receptor, the IC50 lay in the range of 1 to 5 µM. The compound also gave a Ki in experiment [2] of 1 to 5 µM.

Consider `CC(C)CCN1C(=O)C(CC(=O)N2CCC(N3Cc4ccccc4NC3=O)CC2)SC1c1c(F)cccc1C(F)(F)F` (stereo not shown) [Compound 256], for which, on endogenous CGRP receptor, the IC50 is < 1 µM. Further, the Ki in experiment [2] was < 1 µM.

Consider `N#Cc1ccccc1C1SC(CC(=O)N2CCC(N3CCc4ccccc4NC3=O)CC2)C(=O)N1CC1CCCCC1` (stereo not shown) [Compound 175], for which, on endogenous CGRP receptor, the IC50 was < 1 µM. Also, the Ki in experiment [2] was < 1 µM.

With `CC(C)(C)CCN1C(=O)C(CC(=O)N2CCC(N3Cc4ccccc4NC3=O)CC2)SC12CCc1ccccc12` (stereo not shown) [Compound 317], the IC50 at endogenous CGRP receptor fell in the range of 1 to 5 µM. The Ki in experiment [2] is < 1 µM.

Consider `CC(C)(C)CCN1C(=O)[C@H](CC(=O)N2CCC(n3c(=O)[nH]c4ncccc43)CC2)S[C@@H]1c1cccc(F)c1C1CCNCC1` [Compound 554], for which the IC50 on endogenous CGRP receptor was < 1 µM. In experiment [2], the Ki was < 1 µM.

Turning to `CCCCN1CCN(c2ccccc2C2SC(CC(=O)N3CCC(N4CCc5ccccc5NC4=O)CC3)C(=O)N2CCC(C)(C)C)CC1` (stereo not shown) [Compound 365], the IC50 on endogenous CGRP receptor is < 1 µM. Also, the Ki in experiment [2] is < 1 µM.

`CC(C)CCN1C(=O)C(CC(=O)N2CCC(N3Cc4ccccc4NC3=O)CC2)SC1c1ccccc1F` (stereo not shown) [Compound 170]: the IC50 at endogenous CGRP receptor is < 1 µM. Also, the Ki in experiment [2] was < 1 µM.

In the case of `CC(C)(C)CCN1C(=O)[C@H](CC(=O)N2CCC(n3c(=O)[nH]c4ncccc43)CC2)SC1c1cccc(F)c1N1CCC(F)(F)C1` (stereo partly shown) [Compound 482], the IC50 on endogenous CGRP receptor was 1 to 5 µM. In addition, in experiment [2], the Ki is < 1 µM.

As for `CC(C)(C)CCN1C(=O)C(CC(=O)N2CCC(N3CCc4ccccc4NC3=O)CC2)SC1c1ccccc1-n1cccn1` (stereo not shown) [Compound 88], the IC50 at endogenous CGRP receptor is < 1 µM. The Ki in experiment [2] is < 1 µM.

Regarding `CC(C)(C)N1CCN(c2c(F)cccc2C2S[C@@H](CC(=O)N3CCC(n4c(=O)[nH]c5ncccc54)CC3)C(=O)N2CC2CCCCC2)CC1` (stereo partly shown) [Compound 516], the IC50 on endogenous CGRP receptor was < 1 µM. Moreover, in experiment [2], the Ki was < 1 µM.

Regarding `CCCN1C(=O)[C@H](CC(=O)N2CCC(n3c(=O)[nH]c4ncccc43)CC2)SC1c1cccc(F)c1N1CCN(C(C)(C)C)CC1` (stereo partly shown) [Compound 538], the IC50 at endogenous CGRP receptor is < 1 µM. In addition, the Ki in experiment [2] was < 1 µM.

`CC(C)(C)CCN1C(=O)[C@H](CC(=O)N2CCC(n3c(=O)[nH]c4ncccc43)CC2)SC1c1cccc(F)c1NCCN1CCCCC1` (stereo partly drawn) [Compound 532, 1-(1-(2-((5S)-2-(2-(2-(Piperidin-1-yl)ethylamino)-3-fluorophenyl)-3-(3,3-dimethylbutyl)-4-oxothiazolidin-5-yl)acetyl)piperidin-4-yl)-1H-imidazo[4,5-b]pyridin-2(3H)-one]: on endogenous CGRP receptor, the IC50 was < 1 µM. The Ki in experiment [2] is < 1 µM.

Consider `CN(c1ccccc1C1SC(CC(=O)N2CCC(N3CCc4ccccc4NC3=O)CC2)C(=O)N1CCC(C)(C)C)[C@H]1CCN(Cc2ccccc2)C1` (stereo partly shown) [Compound 409], for which, on endogenous CGRP receptor, the IC50 is > 5 µM. For the same compound, in experiment [2], the Ki was < 1 µM.

For the compound `CC(C)CCN1C(=O)C(CC(=O)N2CCC(n3cc(-c4ccccc4)[nH]c3=O)CC2)SC1c1ccc(F)cc1F` (stereo not shown) [Compound 237], the IC50 on endogenous CGRP receptor was < 1 µM. Also, the Ki in experiment [2] is > 5 µM.

Turning to `CC(C)CCN1C(=O)C(CC(=O)N2CCC(N3Cc4ccccc4NC3=O)CC2)SC12c1ccccc1-c1ccccc12` (stereo not shown) [Compound 14], the IC50 at endogenous CGRP receptor is < 1 µM. Besides, in experiment [2], the Ki is < 1 µM.

Turning to `CC(C)(C)N1CCN(c2c(F)cccc2[C@H]2S[C@@H](CC(=O)N3CCC(N4CCc5ccccc5NC4=O)CC3)C(=O)N2Cc2ccccc2)CC1` [Compound 547], the IC50 at endogenous CGRP receptor was < 1 µM. In experiment [2], the Ki was < 1 µM.

As to `CC(C)CCN1C(=O)C(CC(=O)N2CCC(n3cc(-c4ccccc4)[nH]c3=O)CC2)SC1C1CCCC1` (stereo not shown) [Compound 87], the IC50 at endogenous CGRP receptor lay within 1 to 5 µM. Also, the Ki in experiment [2] fell in the range of 1 to 5 µM.

Regarding `CC(C)CCN1C(=O)C(CC(=O)N2CCC(N3CCc4ccccc4NC3=O)CC2)SC1c1ccccc1F` (stereo not shown) [Compound 149], on endogenous CGRP receptor, the IC50 is < 1 µM. Moreover, the inhibitory constant (Ki) in experiment [2] was < 1 µM.

As to `Cc1cc(C2SC(CC(=O)N3CCC(N4CCc5ccccc5NC4=O)CC3)C(=O)N2CCC(C)(C)C)cc2cn[nH]c12` (stereo not shown) [Compound 3], the IC50 on endogenous CGRP receptor is < 1 µM. For the same compound, in experiment [2], the Ki is < 1 µM.

Turning to `O=C(CC1SC(c2ccccc2)N(C2CCCCC2)C1=O)N1CCC(N2Cc3ccccc3NC2=O)CC1` (stereo not shown) [Compound 1], the IC50 at endogenous CGRP receptor is < 1 µM. Moreover, in experiment [2], the Ki was < 1 µM.

For `CC(C)(C)CCN1C(=O)C(CC(=O)N2CCC(N3CCc4ccccc4NC3=O)CC2)SC1c1cccc(F)c1NCCN1CCOCC1` (stereo in doubt) [Compound 506, 3-(1-(2-((5S)-2-(2-(2-Morpholinoethylamino)-3-fluorophenyl)-3-(3,3-dimethylbutyl)-4-oxothiazolidin-5-yl)acetyl)piperidin-4-yl)-4,5-dihydro-1H-benzo[d][1,3]diazepin-2(3H)-one], on endogenous CGRP receptor, the IC50 was < 1 µM. In addition, in experiment [2], the Ki was < 1 µM.

As to `CC(C)CCN1C(=O)C(CC(=O)N2CCC(n3c(=O)[nH]c4ccccc43)CC2)SC1c1ccccc1-n1ccnc1` (stereo not shown) [Compound 289], the IC50 at endogenous CGRP receptor was < 1 µM. Moreover, the Ki in experiment [2] is < 1 µM.

On to `CCCCN1C(=O)C(CC(=O)N2CCC(N3Cc4ccccc4NC3=O)CC2)SC1c1ccccc1` (stereo not shown) [Compound 107], for which the IC50 on endogenous CGRP receptor is < 1 µM. For the same compound, the Ki in experiment [2] is < 1 µM.

Take `CC(C)(C)CCN1C(=O)C(CC(=O)N2CCC(N3Cc4ccccc4NC3=O)CC2)SC1c1ccccc1-n1cccn1` (stereo not shown) [Compound 115]: on endogenous CGRP receptor, the IC50 was < 1 µM. Also, the Ki in experiment [2] was < 1 µM.

For `NCCCC[C@H](NC(=O)[C@@H](Cc1cc(Br)c(O)c(Br)c1)NC(=O)N1CCC(N2Cc3ccccc3NC2=O)CC1)C(=O)N1CCN(c2ccncc2)CC1` [BIBN4096BS], the “effect on increase in facial blood flow” value in the experiment with facial blood flow [3] was “blocked”. Besides, the “efficacy in acute attacks of migraine” value in experiment [4] is reported as “effective in treating acute attacks of migraine”.

As for `CC(C)CCN1C(=O)C(CC(=O)N2CCC(N3Cc4ccccc4NC3=O)CC2)SC12CCSCC2` (stereo not shown) [Compound 174], the IC50 on endogenous CGRP receptor was < 1 µM. Moreover, the Ki in experiment [2] is < 1 µM.

Turning to `COc1ccc(C(=O)C2CCN(C(=O)C[C@@H]3SC(c4cccc(F)c4N4CCN(C(C)(C)C)CC4)N(CCC(C)(C)C)C3=O)CC2)cc1` (stereo partly shown) [Compound 461], the IC50 on endogenous CGRP receptor is < 1 µM. Besides, in experiment [2], the Ki was < 1 µM.

Regarding `O=C(CC1SC(c2c(F)cccc2F)N(CC2CCCCC2)C1=O)N1CCC(N2CCc3ccccc3NC2=O)CC1` (stereo not shown) [Compound 16], the IC50 on endogenous CGRP receptor is < 1 µM. Moreover, the Ki in experiment [2] is < 1 µM.

With `CC(C)(C)CCN1C(=O)C(CC(=O)N2CCC(N3Cc4ccccc4NC3=O)CC2)SC1c1ccccc1` (stereo not shown) [Compound 93], the IC50 on endogenous CGRP receptor is < 1 µM. Moreover, the Ki in experiment [2] is < 1 µM.

Source of the values: patent US8163737B2 (Vertex Pharmaceuticals Incorporated, priority 2006, dated 2012).
